In patent US8889671B2, “Compounds and methods for treating bacterial infections” (AstraZeneca AB, priority 2013, dated 2014):
Converted amounts (≈) assume the structure as drawn. Where two headings read alike, the source gives them in different places.

Experiments:
Proteus mirabilis = test: In vitro antibacterial activity of Example 5 (MIC); format: cell-based
Klebsiella pneumoniae [1] = test: In vitro antibacterial activity of Example 5 (MIC); format: cell-based
Neisseria gonorrhoeae [2] = test: MIC against 100 N. gonorrhoeae isolates, CLSI reference agar dilution; format: cell-based
Neisseria gonorrhoeae [3] = test: In vitro antibacterial activity of Example 5 (MIC, agar dilution); format: cell-based; conditions: 17 strains of Neisseria gonorrhoeae
Klebsiella oxytoca = test: In vitro antibacterial activity of Example 5 (MIC); format: cell-based
[4] = system: Staphylococcus haemolyticus; test: In vitro antibacterial activity of Example 5 (MIC); format: cell-based
Staphylococcus aureus [5] = test: In vitro antibacterial activity of Example 5 (MIC); format: cell-based
B. anthracis = test: microbe, parasite or virus in culture; format: cell-based, Bacillus anthracis
Pseudomonas aeruginosa [6] = test: In vitro antibacterial activity of Example 5 (MIC); format: cell-based
[7] = system: Bacteroides thetaiotaomicron; test: In vitro antibacterial activity of Example 5 against anaerobes (MIC, agar dilution); format: cell-based
Clostridium perfringens = test: microbe, parasite or virus in culture; format: cell-based
S. pyogenes ARC838 = test: Emergence of resistance with serial passage; format: cell-based, Streptococcus pyogenes; conditions: after twenty passages with Example 5, S. pyogenes ARC838
Staphylococcus aureus [8] = test: S. aureus neutropenic mouse thigh infection model, PK/PD; conditions: for AUC value for 1-log reduction / AUC value for stasis: ip, with ABT
Escherichia coli = test: Susceptibility testing (MIC) Assay 2, broth microdilution; format: cell-based; conditions: K12, read-out: Eco MIC
Haemophilus influenzae = test: as above; format: cell-based; conditions: ATCC51907, Haemophilus influenzae, ATCC 51907, in vivo strain, read-out: Hin MIC
Klebsiella pneumoniae [9] = test: as above; format: cell-based; conditions: clinical isolate, mucoid, read-out: Kpn MIC
Pseudomonas aeruginosa [10] = test: as above; format: cell-based; conditions: PAO1, read-out: Pae MIC
[11] = azithromycin-intermediate isolates
[12] = S. aureus MRSA neutropenic dose response
[13] = S. aureus MRSA, neutropenic mouse thigh
[14] = S. aureus MSSA neutropenic dose response
[15] = S. aureus MSSA, neutropenic mouse thigh
[16] = S. aureus USA100, neutropenic mouse thigh
[17] = S. aureus USA100 neutropenic dose response
[18] = S. aureus USA300, neutropenic mouse thigh
[19] = S. aureus USA300 neutropenic dose response

Structure (SMILES): C[C@@H]1CN2c3c(cc4c(N5C(=O)OC[C@@H]5C)noc4c3F)CC3(C(=O)NC(=O)NC3=O)[C@H]2[C@H](C)O1 [Example 5, (2R,4S,4aS)-11-Fluoro-2,4-dimethyl-8-[(4S)-4-methyl-2-oxo-1,3-oxazolidin-3-yl]-1,2,4,4a-tetrahydro-2′H,6H-spiro[1,4-oxazino[4,3-a][1,2]oxazolo[4,5-g]quinoline-5,5′-pyrimidine]-2′,4′,6′(1′H,3′H)-trione]
- MIC (Proteus mirabilis): 8 µg/mL (≈ 16.4 µM)
- MIC (Klebsiella pneumoniae [1]; ATCC700603, Klebsiella pneumoniae (ATCC 700603 CLSI QC Strain)): > 64 µg/mL
- MIC (Klebsiella pneumoniae [1]; Klebsiella pneumoniae (In vivo strain)): 16 µg/mL (≈ 32.8 µM)
- MIC (Klebsiella pneumoniae [1]; Klebsiella pneumoniae (isolates not further specified)): 64 µg/mL (≈ 131 µM)
- MIC (Neisseria gonorrhoeae [2]; Neisseria gonorrhoeae, ATCC49226, QC strain N. gonorrhoeae ATCC 49226, read-out: MIC): 0.06 µg/mL (≈ 0.123 µM)
- MIC (Neisseria gonorrhoeae [2]; Neisseria gonorrhoeae, all 100 N. gonorrhoeae isolates tested, read-out: MIC values): ≤ 0.25 µg/mL
- MIC90 (Neisseria gonorrhoeae [2]; Neisseria gonorrhoeae, azithromycin-intermediate isolates, read-out: MIC90): 0.12 µg/mL (≈ 0.246 µM)
- MIC (Neisseria gonorrhoeae [2]; Neisseria gonorrhoeae, azithromycin-susceptible and -intermediate isolates, read-out: modal MIC): 0.06 µg/mL (≈ 0.123 µM)
- MIC90 (Neisseria gonorrhoeae [2]; Neisseria gonorrhoeae, azithromycin-susceptible isolates, read-out: MIC90): 0.06 µg/mL (≈ 0.123 µM)
- MIC90 (Neisseria gonorrhoeae [2]; Neisseria gonorrhoeae, ciprofloxacin-intermediate and -resistant strains, read-out: MIC90): 0.12 µg/mL (≈ 0.246 µM)
- MIC (Neisseria gonorrhoeae [2]; Neisseria gonorrhoeae, ciprofloxacin-intermediate and -resistant strains, read-out: modal MIC): 0.06 µg/mL (≈ 0.123 µM)
- MIC90 (Neisseria gonorrhoeae [2]; Neisseria gonorrhoeae, non-susceptible phenotypes, read-out: MIC90): 0.06 to 0.12 µg/mL (≈ 0.123 to 0.246 µM)
- MIC (Neisseria gonorrhoeae [2]; Neisseria gonorrhoeae, penicillin-intermediate and -resistant strains, read-out: modal MIC): 0.06 µg/mL (≈ 0.123 µM)
- MIC90 (Neisseria gonorrhoeae [2]; Neisseria gonorrhoeae, penicillin-intermediate strains, read-out: MIC90): 0.06 µg/mL (≈ 0.123 µM)
- MIC90 (Neisseria gonorrhoeae [2]; Neisseria gonorrhoeae, penicillin-resistant strains, read-out: MIC90): 0.12 µg/mL (≈ 0.246 µM)
- MIC90 (Neisseria gonorrhoeae [2]; Neisseria gonorrhoeae, susceptible phenotypes (ciprofloxacin-, tetracycline- and azithromycin-susceptible), read-out: MIC90): 0.06 µg/mL (≈ 0.123 µM)
- MIC (Neisseria gonorrhoeae [2]; Neisseria gonorrhoeae, tetracycline-intermediate and -resistant strains, read-out: modal MIC): 0.06 µg/mL (≈ 0.123 µM)
- MIC90 (Neisseria gonorrhoeae [2]; Neisseria gonorrhoeae, tetracycline-intermediate strains, read-out: MIC90): 0.06 µg/mL (≈ 0.123 µM)
- MIC90 (Neisseria gonorrhoeae [2]; Neisseria gonorrhoeae, tetracycline-resistant strains, read-out: MIC90): 0.12 µg/mL (≈ 0.246 µM)
- MIC (Neisseria gonorrhoeae [2]; Neisseria gonorrhoeae, various subsets of isolates including those non-susceptible to comparator agents, read-out: modal MIC): 0.06 µg/mL (≈ 0.123 µM)
- MIC50 (Neisseria gonorrhoeae [2]; Neisseria gonorrhoeae, all 100 N. gonorrhoeae isolates, read-out: MIC50): 0.06 µg/mL (≈ 0.123 µM)
- MIC90 (Neisseria gonorrhoeae [2]; Neisseria gonorrhoeae, all 100 N. gonorrhoeae isolates, read-out: MIC90): 0.125 µg/mL (≈ 0.256 µM)
- MIC (Neisseria gonorrhoeae [2]; QC strain N. gonorrhoeae ATCC 49226): 0.12 µg/mL (≈ 0.246 µM)
- MIC90 (Neisseria gonorrhoeae [2]; all 100 N. gonorrhoeae isolates): 0.12 µg/mL (≈ 0.246 µM)
- MIC50 (Neisseria gonorrhoeae [2]; [11]): 0.06 µg/mL (≈ 0.123 µM)
- isolates at 0.06 μg/mL (Neisseria gonorrhoeae [2]; [11]): 66.7%
- MIC50 (Neisseria gonorrhoeae [2]; azithromycin-susceptible isolates): 0.06 µg/mL (≈ 0.123 µM)
- MIC50 (Neisseria gonorrhoeae [2]; ciprofloxacin-intermediate and -resistant strains): 0.06 µg/mL (≈ 0.123 µM)
- MIC50 (Neisseria gonorrhoeae [2]; penicillin-intermediate strains): 0.06 µg/mL (≈ 0.123 µM)
- MIC50 (Neisseria gonorrhoeae [2]; penicillin-resistant strains): 0.06 µg/mL (≈ 0.123 µM)
- isolates at ≦0.06 μg/mL (Neisseria gonorrhoeae [2]; penicillin-resistant strains): 85.7%
- MIC50 (Neisseria gonorrhoeae [2]; tetracycline-intermediate strains): 0.06 µg/mL (≈ 0.123 µM)
- MIC50 (Neisseria gonorrhoeae [2]; tetracycline-resistant strains): 0.06 µg/mL (≈ 0.123 µM)
- isolates at 0.06 μg/mL (Neisseria gonorrhoeae [2]; tetracycline-resistant strains): 66.7%
- MIC90 (Neisseria gonorrhoeae [3]): 0.125 µg/mL (≈ 0.256 µM)
- MIC range (Neisseria gonorrhoeae [3]): 0.03 to 0.25 µg/mL
- MIC (Klebsiella oxytoca): 32 µg/mL (≈ 65.6 µM)
- MIC [4]: 0.25 µg/mL (≈ 0.513 µM)
- MIC90 ([4]; S. haemolyticus, n=21): 0.25 µg/mL (≈ 0.513 µM)
- MIC90 (Staphylococcus aureus [5]; 100 strains of S. aureus): 0.25 µg/mL (≈ 0.513 µM)
- MIC (Staphylococcus aureus [5]; ATCC29213, Staphylococcus aureus (ATCC 29213, CLSI QC Strain)): 0.125 µg/mL (≈ 0.256 µM)
- MIC (Staphylococcus aureus [5]; ATCC29213, Staphylococcus aureus + 2%Human albumin (ATCC 29213, CLSI QC Strain)): 0.25 µg/mL
- MIC (Staphylococcus aureus [5]; MRSA / USA100, Staphylococcus aureus (MRSA, USA100)): 0.125 µg/mL (≈ 0.256 µM)
- MIC (Staphylococcus aureus [5]; MRSA, Staphylococcus aureus (MRSA)): 0.5 µg/mL (≈ 1.03 µM)
- MIC (Staphylococcus aureus [5]; MRSA, Staphylococcus aureus (MRSA, fluoroquinolone-R)): 0.25 µg/mL (≈ 0.513 µM)
- MIC (Staphylococcus aureus [5]; MSSA, Staphylococcus aureus (MSSA, in vivo strain)): 0.125 µg/mL (≈ 0.256 µM)
- MIC (Staphylococcus aureus [5]; Staphylococcus aureus (In vivo Strain)): 0.25 µg/mL (≈ 0.513 µM)
- MIC (Staphylococcus aureus [5]; VISA, Staphylococcus aureus (Mu3, VISA)): 0.25 µg/mL (≈ 0.513 µM)
- MIC range (B. anthracis; B. anthracis, BSL3 testing): 0.125 to 1 µg/mL
- MIC90 (B. anthracis; Bacillus anthracis): 0.5 µg/mL (≈ 1.03 µM)
- MIC (Pseudomonas aeruginosa [6]; PAO1, Pseudomonas aeruginosa (PAO1)): > 64 µg/mL
- MIC (Pseudomonas aeruginosa [6]; PAO1, Pseudomonas aeruginosa (PAO1, mexABCDXY-)): 2 µg/mL (≈ 4.1 µM)
- MIC (Pseudomonas aeruginosa [6]; Pseudomonas aeruginosa (clinical isolate)): > 64 µg/mL
- MIC ([7]; ATCC29741, Bacteroides thetaiotaomicron (ATCC 29741, CLSI QC Strain)): 8 µg/mL (≈ 16.4 µM)
- MIC ([7]; Bacteroides thetaiotaomicron): 8 µg/mL (≈ 16.4 µM)
- MIC (Clostridium perfringens): 0.5 µg/mL (≈ 1.03 µM)
- decrease in susceptibility over the starting culture (S. pyogenes ARC838): 8 fold
- AUC/MIC (free), 1-log reduction ± SEM (Staphylococcus aureus [8]; [12]): 96 ± 35
- AUC/MIC (free), EC50 ± SEM (Staphylococcus aureus [8]; [12]): 53 ± 25
- AUC/MIC (free), Stasis ± SEM (Staphylococcus aureus [8]; [12]): 43 ± 5
- AUC value for 1-log reduction (Staphylococcus aureus [8]; [13]): 55 μg·h/mL
- AUC value for stasis (Staphylococcus aureus [8]; [13]): 24 µg·h/mL
- AUC/MIC (free), 1-log reduction ± SEM (Staphylococcus aureus [8]; [14]): 245 ± 81
- AUC/MIC (free), EC50 ± SEM (Staphylococcus aureus [8]; [14]): 71 ± 28
- AUC/MIC (free), Stasis ± SEM (Staphylococcus aureus [8]; [14]): 98 ± 17
- AUC value for 1-log reduction (Staphylococcus aureus [8]; [15]): 69 μg·h/mL
- AUC value for stasis (Staphylococcus aureus [8]; [15]): 28 µg·h/mL
- AUC value for 1-log reduction (Staphylococcus aureus [8]; [16]): 47 μg·h/mL
- AUC value for stasis (Staphylococcus aureus [8]; [16]): 25 µg·h/mL
- AUC/MIC (free), 1-log reduction ± SEM (Staphylococcus aureus [8]; [17]): 83 ± 23
- AUC/MIC (free), EC50 ± SEM (Staphylococcus aureus [8]; [17]): 34 ± 14
- AUC/MIC (free), Stasis ± SEM (Staphylococcus aureus [8]; [17]): 43 ± 5
- AUC value for 1-log reduction (Staphylococcus aureus [8]; [18]): 150 μg·h/mL
- AUC value for stasis (Staphylococcus aureus [8]; [18]): 91 µg·h/mL
- AUC/MIC (free), 1-log reduction ± SEM (Staphylococcus aureus [8]; [19]): 132 ± 16
- AUC/MIC (free), EC50 ± SEM (Staphylococcus aureus [8]; [19]): 73 ± 38
- AUC/MIC (free), Stasis ± SEM (Staphylococcus aureus [8]; [19]): 80 ± 5
- MIC (Escherichia coli): 4 µM (≈ 1.95 µg/mL)
- MIC (Haemophilus influenzae): 0.33 µM (≈ 0.161 µg/mL)
- MIC (Klebsiella pneumoniae [9]): > 200 µM
- MIC (Pseudomonas aeruginosa [10]): > 200 µM
